Assay results from patent US20250313574A1, “SIALIC ACID DERIVATIVES AND METHODS OF USING SAME” (EISAI R&D MANAGEMENT CO., LTD., priority 2022, published 2025).
pEC50: −log10 of the molar value.

Assays:
[1] = target: Recombinant Human Siglec-3/CD33 protein (His-CD33) (Homo sapiens (Human), UniProt P20138); assay: Differential scanning fluorimetry (DSF) thermal shift assay; assay type: binding
[2] = target: Recombinant human CD33 protein (Homo sapiens (Human), UniProt P20138); assay: CD33 competitive binding assay for HTS drug screen (fluorescent multivalent sialic acid probe)
Recombinant human CD33 protein, sequence (P20138 18-259): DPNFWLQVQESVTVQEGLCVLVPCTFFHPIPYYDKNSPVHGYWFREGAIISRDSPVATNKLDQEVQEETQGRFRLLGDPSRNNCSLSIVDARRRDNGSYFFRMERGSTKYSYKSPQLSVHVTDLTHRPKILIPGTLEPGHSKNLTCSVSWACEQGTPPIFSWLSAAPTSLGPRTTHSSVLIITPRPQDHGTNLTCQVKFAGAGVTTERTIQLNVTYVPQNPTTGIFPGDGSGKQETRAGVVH
Summary of the method: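 Recombinant human CD33, coated overnight at 4° C from 10 μg/ml in pH 5.5 acetate, was preincubated briefly with compound. It was then exposed to a multivalent neutravidin/FITC/sialic acid analog A-375 probe (final 5 μM neutravidin, 15 μM A-375, 5 μM FITC) for 30 min at room temperature. After washing, bound FITC fluorescence was read.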

[3] = difference in thermal melt of CD33 protein (0.5 μM) with 50 μM compound
[4] = thermal melt shift of 0.5 μM CD33 protein with 50 μM compound

Recombinant Human Siglec-3/CD33 protein (His-CD33), sequence (P20138 18-259): as above

Row | SMILES | DSF (dTmD) [1, 3] [°C] | pEC50 [2] | DSF (dTmD) [1, 4]
1 | CC(=O)N[C@H]1[C@H]([C@H](O)[C@H](O)CNC(=O)c2cc3ncccn3n2)O[C@@](CCN2CCOC[C@@]23CCN(C(=O)OC(C)(C)C)C3)(C(=O)O)C[C@@H]1O [A-122] | – | 7.49 | 12.4
2 | CC(=O)N[C@H]1[C@H]([C@H](O)[C@H](O)CNC(=O)c2cc(C)c(O)c(C)c2)O[C@@](C/C=C/C2CCN(C(=O)OC(C)(C)C)C2)(C(=O)O)C[C@@H]1O (some centres unmarked) [A-194] | – | 7.59 | 11.7
3 | CC(=O)N[C@H]1[C@H]([C@H](O)[C@H](O)CNC(=O)c2cc(C)c(O)c(C)c2)O[C@@](CCN2CCOC[C@]23CCN(C(=O)OC(C)(C)C)C3)(C(=O)O)C[C@@H]1O [A-003] | – | 5.94 | 5.12
4 | CC(=O)N[C@H]1[C@H]([C@H](O)[C@H](O)CNC(=O)c2ccc(=O)n(C)c2)O[C@@](CCN2CCOC[C@@]23CCN(C(=O)OC(C)(C)C)C3)(C(=O)O)C[C@@H]1O [A-170] | – | 5.41 | 6.0
5 | CC(=O)N[C@H]1[C@H]([C@H](O)[C@H](O)CNC(=O)c2cc(C)c(O)c(C)c2)O[C@](C#N)(CCN2CCOC[C@@]23CCN(C(=O)OC(C)(C)C)C3)C[C@@H]1O [A-362] | −0.3 | < 4.00 | –
6 | CC(=O)N[C@H]1[C@H]([C@H](O)[C@H](O)CNC(=O)c2cc(Cl)[nH]n2)O[C@@](CCN2CCOC[C@@]23CCN(C(=O)OC(C)(C)C)C3)(C(=O)O)C[C@@H]1O [A-157] | – | 7.10 | 10.3
7 | CC(=O)N[C@H]1[C@H]([C@H](O)[C@H](O)CNC(=O)c2cc(C)c(O)c(C)c2)O[C@@](CCN2C(C)CCC23CCN(C(=O)OC(C)(C)C)C3)(C(=O)O)C[C@@H]1O (some centres unmarked) [A-025] | – | 6.94 | 10.0
8 | CC(=O)N[C@H]1[C@H]([C@H](O)[C@H](O)CNC(=O)c2cn[nH]c2)O[C@@](CCN2CCOC[C@@]23CCN(C(=O)OC(C)(C)C)C3)(C(=O)O)C[C@@H]1O [A-161] | – | 5.97 | 5.9
9 | CC(=O)N[C@H]1[C@H]([C@H](O)[C@H](O)CNC(=O)c2c[nH]nc2C(F)(F)F)O[C@@](CCN2CCOC[C@@]23CCN(C(=O)OC(C)(C)C)C3)(C(=O)O)C[C@@H]1O [A-175] | – | 5.39 | 4.6
10 | CNC(=O)c1c(C)cc(C(=O)NC[C@@H](O)[C@@H](O)[C@@H]2O[C@@](CCN3CCOC[C@@]34CCN(C(=O)OC(C)(C)C)C4)(C(=O)O)C[C@H](O)[C@H]2NC(C)=O)cc1C [A-164] | – | 5.81 | 5.3
11 | CC(=O)N[C@H]1[C@H]([C@H](O)[C@H](O)CNC(=O)c2ccc(N3CCN(C)CC3)cc2)O[C@@](CCN2CCOC[C@@]23CCN(C(=O)OC(C)(C)C)C3)(C(=O)O)C[C@@H]1O [A-143] | – | 6.48 | 7.8
12 | CC(=O)N[C@H]1[C@H]([C@H](O)[C@H](O)CNC(=O)c2cc(C)c(C(N)=O)c(C)c2)O[C@@](CCN2CCOC[C@@]23CCN(C(=O)OC(C)(C)C)C3)(C(=O)O)C[C@@H]1O [A-141] | – | 6.46 | 7.0
13 | CC(=O)N[C@H]1[C@H]([C@H](O)[C@H](O)CNC(=O)c2ccc3[nH]nc(C)c3c2)O[C@@](CCN2CCOC[C@@]23CCN(C(=O)OC(C)(C)C)C3)(C(=O)O)C[C@@H]1O [A-125] | – | 7.64 | 13.3
14 | CC(=O)Nc1ccc(C(=O)NC[C@@H](O)[C@@H](O)[C@@H]2O[C@@](CCN3CCOC[C@@]34CCN(C(=O)OC(C)(C)C)C4)(C(=O)O)C[C@H](O)[C@H]2NC(C)=O)cc1 [A-184] | – | 5.96 | 6.0
15 | CC(=O)N[C@H]1[C@H]([C@H](O)[C@H](O)CNC(=O)c2cccc(C)c2)O[C@@](CCN2CCOC[C@@]23CCN(C(=O)OC(C)(C)C)C3)(C(=O)O)C[C@@H]1O [A-181] | – | 7.15 | 10.9
16 | CC(=O)N[C@H]1[C@H]([C@H](O)[C@H](O)CNC(=O)c2cc(C)c(O)c(C)c2)O[C@@](CCN2CCCC23CN(C(=O)OC(C)(C)C)C3)(C(=O)O)C[C@@H]1O [A-017] | – | 5.81 | 1.2
17 | CC(=O)N[C@H]1[C@H]([C@H](O)[C@H](O)CNC(=O)c2ccc3[nH]nnc3c2)O[C@@](CCN2CCOC[C@@]23CCN(C(=O)OC(C)(C)C)C3)(C(=O)O)C[C@@H]1O [A-178] | – | 6.84 | 9.5
18 | CC(=O)N[C@H]1[C@H]([C@H](O)[C@H](O)CNC(=O)c2ccc(-c3ncn[nH]3)cc2)O[C@@](CCN2CCOC[C@@]23CCN(C(=O)OC(C)(C)C)C3)(C(=O)O)C[C@@H]1O [A-142] | – | 6.47 | 6.4

Further lines, results first:

Row | DSF (dTmD) [1, 3] [°C] | pEC50 [2] | DSF (dTmD) [1, 4] | SMILES
19 | 7.4 | 6.89 | – | CC(=O)N[C@H]1[C@H]([C@H](O)[C@H](O)CNC(=O)c2cc(C)c(O)c(C)c2)O[C@@](CC2OC(C)(C)O[C@H]2c2cc(N3CCCC3=O)ccc2C)(C(=O)O)C[C@@H]1O (some centres unmarked) [A-318]
20 | 3.6 | 5.00 | – | CC(=O)N[C@H]1[C@H]2O[C@](C(=O)O)(C/C=C/c3cccc(c3)[C@@H](NC(=O)[C@H]3CCCOC3)CCCCOc3c(C)cc(cc3C)C(=O)NC[C@@H](O)[C@H]2O)C[C@@H]1O [A-348]
21 | 3.5 | 5.40 | – | Cc1cc(C(=O)NC[C@@H](O)[C@@H](O)[C@@H]2O[C@@](C/C=C/c3cccc(CNC(=O)c4ccc(Cl)cc4)c3)(C(=O)O)C[C@H](O)[C@H]2NC(=O)Cn2cc(C3CCCCC3)nn2)cc(C)c1O [A-263]
22 | – | 8.22 | 16.6 | CC(=O)N[C@H]1[C@H]([C@H](O)[C@H](O)CNC(=O)c2cc(C)c3[nH]ccc3c2)O[C@@](CCN2CCOC[C@@]23CCN(C(=O)OC(C)(C)C)C3)(C(=O)O)C[C@@H]1O [A-109]
23 | 1.6 | 4.35 | – | Cc1cc(C(=O)NC[C@@H](O)[C@@H](O)[C@@H]2O[C@@](CC(O)[C@@H](O)c3cccc(NC(=O)OC(C)(C)C)c3)(C(=O)O)C[C@H](O)[C@H]2NC(=O)Cn2cc(C3CCCCC3)nn2)cc(C)c1O (some centres unmarked) [A-300]
24 | 9.0 | 5.00 | – | Cc1cc(C(=O)NC[C@@H](O)[C@@H](O)[C@@H]2O[C@@](C/C=C/c3cccc(CNC(=O)OC(C)(C)C)c3)(C(=O)O)C[C@H](O)[C@H]2NC(=O)Cn2cc(C3CCCCC3)nn2)cc(C)c1O [A-285]
25 | 2.8 | 5.11 | – | Cc1cc(C(=O)NC[C@@H](O)[C@@H](O)[C@@H]2O[C@@](OC3CCCCC3NC(=O)Cn3cc(CNC(=O)N4CCOCC4)nn3)(C(=O)O)C[C@H](O)[C@H]2NC(=O)Cn2cc(C3CCCCC3)nn2)cc(C)c1O (some centres unmarked) [A-334]
26 | – | 5.46 | 3.5 | CC(=O)N[C@H]1[C@H]([C@H](O)[C@H](O)CNC(=O)c2cc(C)c(O)c(C)c2)O[C@@](CCN2CCOC[C@@]23CCN(C(=O)N(C)C)C3)(C(=O)O)C[C@@H]1O [A-064]
27 | 3.9 | 5.33 | – | CC(=O)N[C@H]1[C@H]([C@H](O)[C@H](O)CNC(=O)c2cc(C)c(O)c(C)c2)O[C@@](CC(O)[C@@H](O)c2cccc(NC(=O)CC(C)(C)C)c2)(C(=O)O)C[C@@H]1O (some centres unmarked) [A-304]
28 | – | 7.18 | 9.9 | CC(=O)N[C@H]1[C@H]([C@H](O)[C@H](O)CNC(=O)c2cc(C)c(O)c(C)c2)O[C@@](CCN2CCOC[C@@]23CCN(C(=S)NC2CCCCC2)C3)(C(=O)O)C[C@@H]1O [A-052]
29 | 3.8 | 5.04 | – | Cc1cc(C(=O)NC[C@@H](O)[C@@H](O)[C@@H]2O[C@@](C/C=C/c3cccc(CNC(=O)C4CCCO4)c3)(C(=O)O)C[C@H](O)[C@H]2NC(=O)Cn2cc(C3CCCCC3)nn2)cc(C)c1O (some centres unmarked) [A-267]
30 | 4.1 | 5.86 | – | COCCC(=O)NCc1cccc(/C=C/C[C@]2(C(=O)O)C[C@H](O)[C@@H](NC(=O)Cn3cc(C4CCCCC4)nn3)[C@H]([C@H](O)[C@H](O)CNC(=O)c3cc(C)c(O)c(C)c3)O2)c1 [A-265]
31 | 7.0 | 5.06 | – | Cc1cc(C(=O)NC[C@@H](O)[C@@H](O)[C@@H]2O[C@@](C/C=C/c3cccc(CNC(=O)c4ccn(-c5ccccn5)n4)c3)(C(=O)O)C[C@H](O)[C@H]2NC(=O)Cn2cc(C3CCCCC3)nn2)cc(C)c1O [A-275]
32 | – | 6.08 | 7.2 | CC(=O)N[C@H]1[C@H]([C@H](O)[C@H](O)CNC(=O)c2cc(C)c(O)c(C)c2)O[C@@](CCN2CCOC[C@@]23CCN(C(=O)N2CCCC2)C3)(C(=O)O)C[C@@H]1O [A-062]
33 | 5.1 | 5.40 | – | Cc1cc(C(=O)NC[C@@H](O)[C@@H](O)[C@@H]2O[C@@](C/C=C/c3cccc(CNC(=O)c4ccon4)c3)(C(=O)O)C[C@H](O)[C@H]2NC(=O)Cn2cc(C3CCCCC3)nn2)cc(C)c1O [A-271]
34 | 3.0 | 5.05 | – | CC(=O)N[C@H]1[C@H]([C@H](O)[C@H](O)CNC(=O)c2cc(C)c(O)c(C)c2)O[C@@](C/C=C/c2ccccc2CNC(=O)C2CCCOC2)(C(=O)O)C[C@@H]1O (some centres unmarked) [A-233]
35 | – | 7.00 | 9.6 | CC(=O)N[C@H]1[C@H]([C@H](O)[C@H](O)CNC(=O)c2ccc3[nH]cnc3c2)O[C@@](CCN2CCOC[C@@]23CCN(C(=O)OC(C)(C)C)C3)(C(=O)O)C[C@@H]1O [A-135]
36 | 4.9 | 5.82 | – | CC(=O)N[C@H]1[C@H]([C@H](O)[C@H](O)CNC(=O)c2cc(C)c(O)c(C)c2)O[C@@](CC2OC(C)(C)O[C@H]2c2cccc(NC(=O)c3ccc4cc[nH]c4c3)c2)(C(=O)O)C[C@@H]1O (some centres unmarked) [A-302]
37 | 6.0 | 6.17 | – | CC(=O)N[C@H]1[C@H]([C@H](O)[C@H](O)CNC(=O)c2cc(C)c(O)c(C)c2)O[C@@](C/C=C/c2cccc(CNC(=O)c3ccc4[nH]c(CCO)cc4c3)c2)(C(=O)O)C[C@@H]1O [A-248]
